Columns and labels:
[1] = molecular target: T1, hEP4 receptors (human EP4/HEK293 transfectant) (Homo sapiens, UniProt P35408); experiment: [3H]-PGE2 membrane binding assay; conditions: [3H]-PGE2 1 nM, human EP4/HEK293 membranes, compounds 1 nM to 1 μM; Ki by Cheng-Prusoff, pKi = -log10 Ki (M)
T1 construct: expressed in transfected cells; host or cells: HEK-293, stably transfected; membrane fraction
From the text: (§1) Stable Expression of Human EP4 Receptors in the Human Embryonic Kidney (HEK293) Cell Line
(§2) The cDNA clone of human EP4 receptor (NM_000958.2) was obtained from Invitrogen™: Ultimate™ ORF Clone Collection-Clone ID IOH46525. The coding sequence was subcloned in expression vector pcDNATM6.2/V5-DEST by Gateway technology (Invitrogen™).
(§3) Human embryonic kidney cells (HEK-293) were stably transfected with expression vector for human EP4 receptor in according to the method described in FuGENE®6 Transfection Reagent's manual (Roche Applied Science®).
(§4) Preparation of Membrane Fraction:
(§5) The EP4 transfected cells were grown in Dulbecco's modified Eagle's medium containing 10% fetal bovine serum and 10 μg/ml Blasticidin S HCl (selection medium) at 37° C. in a humidified atmosphere of 5% CO2 in air.
(§6) For the membrane preparation, cells in flask were harvested by hypotonical/mechanical lysis with chilled (4° C.) TE buffer (5 mM TRIS, 5 mM etylenediamine tetra-acetic acid (EDTA), pH 7.4).
(§7) Cells were detached and lysed with 10 ml of hypotonic lysis buffer and by scraping. The cell lysate was vortexed for 30 sec and centrifuged at 40000×g at 4° C. for 22 min.
a) Membrane Binding Assay[3H]-Prostaglandin E2
The membrane pellet was resuspended in the same buffer (5 mM TRIS, 5 mM ethylenediamine tetra-acetic acid (EDTA), pH 7.4), and protein concentration was determined by Bradford method (Bio-Bad® assay).
This membrane preparation was stored at −80° C. freezer until use for binding assay.
([^3H]-PGE2) membranes binding assays toward hEP4 receptors (human EP4/HEK293 transfectant, see above) and hEP2 receptors (human EP2/HEK293 transfectant, purchased from PerkinElmer Inc) were performed in 10 mM MES-KOH buffer pH6, containing 10 mM MgCl2 and 1 mM CaCl2 for EP4 binding assay or 50 mM Tris-Cl, BSA 0.5% for EP2 binding assay (according to supplier indication).
Ten microgram of protein from membrane fractions were incubated in a total volume of 0.1 ml (EP4) or 0.2 ml (EP2) with 1 nM (EP4) or 3 nM (EP2) [^3H]-PGE2 (PerkinElmer Inc, 171 Ci/mmol). In both assays to determine the total binding or non specific binding, 1% DMSO or 1 μM prostaglandin E2 (EP4) or 100 μM (EP2) were added to reaction mixtures, respectively. Incubation was conducted in a polypropylene 96 multiwell for 90 min (EP4) or 60 min (EP2) at room temperature prior to separation of the bound and free radioligand by vacuum manifold rapid filtration on glass fiber filters (Unifilter GFB96, PerkinElmer Inc) pre-soaked in 0.3% polyethyleneimine. Filters were washed with ice cold buffer pH 7.4 (50 mM HEPES, NaCl 500 mM, BSA 0.1% for EP4 binding assay or 50 mM Tris-Cl for EP2 binding assays) and the residual [^3H]-PGE2 binding determined by solid scintillation counter (TopCount, PerkinElmer Inc).
The affinity (Ki) of each compound was calculated according to the Cheng-Prousoff equation: Ki=IC50/(1+([C]/Kd)). Results were expressed as pKi (−log 10 Ki (M)

human EP4 receptor = molecular target: T2, human EP4 receptor (Homo sapiens, UniProt P35408); experiment: cAMP assay on human EP4 membrane of transfected cells (AlphaScreen); format: biochemical; conditions: human EP4 HEK293 cell membranes
T2 construct: expressed in transfected cells; host or cells: HEK-293, stably transfected; membrane fraction
From the text: as §1, §2, §3, §4, §5, §6, §7
b) cAMP Assay on Human EP4 Membrane of Transfected Cells.
The assay is based on the competition between endogenous cAMP and exogenously added biotinylated cAMP. The capture of cAMP is achieved by using a specific antibody conjugated to […] beads.
Cell membranes prepared as described above, were resuspended in 1 ml stimulation buffer (HBSS 1×+BSA 0.1%+IBMX 0.5 mM+HEPES 5 mM+MgCl2 10 mM+GTP 1 nM+GDP 10 μM+ATP 100 μM-pH 7.4). Cell membranes were dispensed into white 384-well microplates at final concentration of 1 μg/well and used for the determination of cAMP with the alphascreen cAMP functional assay (EnVision-PerkinElmer). Cell membrane/anti-cAMP Acceptor beads mix (5 μl) and a mixture of analysed compounds (dissolved in 100% DMSO to a final maximal concentration of 0.01% DMSO)/PGE2 (5 μl) were incubated at room temperature (22-23° C.) for 30 min in the dark. The Biotinylated-cAMP and donor beads (15 μl) were dispensed into each well to start the competition reaction. After 1 h incubation RT (22-23° C.) in the dark the plate was read using EnVision platform to determine the cAMP level (excitation: 680 nm; emission:520,620 nm).
cAMP standard curve (concentration range from 1×10-6 to 1×10-11 M in log intervals) with a negative control (no cAMP)
a positive control:forskolin 10 μM
Antagonism studies were performed stimulating HEK293 cell membrane with PGE2 3 nM. The AlphaScreen signal is plotted as a function of log concentration of cAMP and EC50 is determined. EC50 value is calculated by […].

T1 sequence (P35408 whole entry): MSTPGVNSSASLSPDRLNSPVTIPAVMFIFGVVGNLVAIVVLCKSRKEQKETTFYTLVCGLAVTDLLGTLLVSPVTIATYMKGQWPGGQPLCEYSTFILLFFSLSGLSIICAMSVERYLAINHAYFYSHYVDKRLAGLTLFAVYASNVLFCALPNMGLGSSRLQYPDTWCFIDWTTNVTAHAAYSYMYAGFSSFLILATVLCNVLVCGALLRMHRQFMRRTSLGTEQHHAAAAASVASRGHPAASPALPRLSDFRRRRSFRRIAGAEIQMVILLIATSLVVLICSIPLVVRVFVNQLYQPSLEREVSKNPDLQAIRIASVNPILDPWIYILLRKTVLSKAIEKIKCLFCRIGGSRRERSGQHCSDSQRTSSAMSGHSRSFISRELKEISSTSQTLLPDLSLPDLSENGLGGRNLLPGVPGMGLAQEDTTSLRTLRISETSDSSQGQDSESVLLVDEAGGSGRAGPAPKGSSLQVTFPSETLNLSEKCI
T2 sequence (P35408 whole entry): as above

Row | SMILES | Ki [1] [M] | EC50 (human EP4 receptor) [nM]
1 | C[C@H](NC(=O)[C@H]1CCCCN1Cc1cccc(C(F)(F)F)c1)c1ccc(C(=O)O)cc1 [Example E5, lithium 4-((S)-1-((R)-1-(3-(trifluoromethyl)benzyl)piperidine-2-carboxamido)ethyl)benzoate] | 3.16e-08 | 1
2 | O=C(O)c1ccc(C2(NC(=O)[C@H]3CCCCN3Cc3cccc(C(F)(F)F)c3)CC2)cc1 [Example E9, lithium (R)-4-(1-(1-(3-(trifluoromethyl)benzyl)piperidine-2-carboxamido)cyclopropyl)benzoate] | 7.94e-09 | 2.9
3 | Cc1cc(CN2CCCC[C@@H]2C(=O)NC2(c3ccc(C(=O)O)cc3)CC2)ccc1F [Example E12, (R)-4-(1-(1-(4-fluoro-3-methylbenzyl)piperidine-2-carboxamido)cyclopropyl)benzoic acid] | 3.16e-08 | 6
4 | O=C(O)c1ccc(C2(NC(=O)[C@H]3CCCCN3Cc3ccc(F)c(C(F)(F)F)c3)CC2)cc1 [Example E13, lithium (R)-4-(1-(1-(4-fluoro-3-(trifluoromethyl)benzyl)piperidine-2-carboxamido)cyclopropyl)benzoate] | 1e-08 | 8
5 | C[C@H](NC(=O)[C@H]1CCCN1Cc1cccc(C(F)(F)F)c1)c1ccc(C(=O)O)cc1 [Example E15, lithium 4-((S)-1-((R)-1-(3-(trifluoromethyl)benzyl)pyrrolidine-2-carboxamido)ethyl)benzoate] | 2e-08 | 13.5
6 | C[C@H](NC(=O)[C@H]1C[C@@H](O)CN1Cc1cccc(C(F)(F)F)c1)c1ccc(C(=O)O)cc1 [Example E19, lithium 4-((S)-1-((2R,4R)-4-hydroxy-1-(3-(trifluoromethyl)benzyl)pyrrolidine-2-carboxamido)ethyl)benzoate] | 3.98e-08 | 0.1
